Data as given in patent US11007206B2, “Cyclic boronic acid ester derivatives and therapeutic uses thereof” (Melinta Subsidiary Corp., priority 2012, dated 2021).
≈ marks a conversion by molar mass, not a printed value. Where two headings read alike, the source gives them in different places.

How the values were obtained:
[1] = tested on: carbapenem-resistant, KPC-producing K. pneumoniae; experiment: Mouse model of thigh infection, Biapenem +/- Compound I (Example 6); assay type: in vivo; conditions: IP 50 mpk Biapenem +/- 50 mpk Compound I every two hours for 24 hours
Method: Example 6 provides the in vivo efficacy study of the carbapenem Biapenem in combination with Compound I in mouse models of pulmonary and thigh infection due to the carbapenem-resistant, KPC-producing K. pneumoniae.
Four K. pneumoniae strains with Biapenem MICs ranging between 0.25-64 mg/L were used. Neutropenic mice were infected with ˜10^5 CFU/lung or ˜10^6 CFU/thigh. Intraperitoneal treatments with 50 mpk Biapenem+/−50 mpk Compound I were initiated 2 hours post-infection as a single dose or continued every two hours for 24 hours. Mice were sacrificed on designated time points and colony counts in tissue determined.

K. pneumoniae strains = experiment: Biapenem MICs of the K. pneumoniae strains used in the infection models (Example 6); assay type: cell-based; conditions: Klebsiella pneumoniae
[2] = Single-dose pharmacokinetics of Compound I, intravenous 30-minute infusion in Cynomologus monkeys (Example 5); assay type: in vivo; conditions: Monkey; for half-life / AUC / Cmax: in vivo
Method: Example 5 provides the single-dose pharmacokinetic studies of Compound I inpreclinical species, including intraperitoneal administration to Swiss-Webster mice and intravaneous administration to Sprague-Dawley rats, Beagle dogs, and Cynomologus monkeys.
Intravaneous doses of Compound I were administered as 30-minute infusions. The pharmacokinetics of Compound I were also studied with coadministration of the carbapenem, Biapenem. Compound I concentrations were determined using an LC-MS detection method.

C[C@@H](O)[C@H]1C(=O)N2C(C(=O)[O-])=C(SC3Cn4cnc[n+]4C3)[C@H](C)[C@H]12 (stereo partly shown) [Biapenem]
Change in Log CFU/thigh ± SD @ 24 h ([1]; strain ATCC 43816, neutropenic mice): −1.09 ± 0.30 Log CFU/thigh | Change in Log CFU/thigh ± SD @ 24 h ([1]; strain KP1004, neutropenic mice): +0.71 ± 0.10 Log CFU/thigh | Change in Log CFU/thigh ± SD @ 24 h ([1]; strain KP1061, neutropenic mice): +1.67 ± 0.09 Log CFU/thigh | Change in Log CFU/thigh ± SD @ 24 h ([1]; strain KP1074, neutropenic mice): +0.98 ± 0.46 Log CFU/thigh | MIC (K. pneumoniae strains; ATCC43816, K. pneumoniae strain ATCC 43816, read-out: Biapenem MIC Alone): 0.25 µg/mL (≈ 0.713 µM) | MIC (K. pneumoniae strains; ATCC43816, K. pneumoniae strain ATCC 43816, with Compound I 5 μg/mL, read-out: Biapenem MIC with Compound I (5 μg/mL)): 0.25 µg/mL (≈ 0.713 µM) | MIC (K. pneumoniae strains; K. pneumoniae strain KP1004, read-out: Biapenem MIC Alone): 16 µg/mL (≈ 45.7 µM) | MIC (K. pneumoniae strains; K. pneumoniae strain KP1004, with Compound I 5 μg/mL, read-out: Biapenem MIC with Compound I (5 μg/mL)): ≤ 0.06 µg/mL | MIC (K. pneumoniae strains; K. pneumoniae strain KP1061, read-out: Biapenem MIC Alone): 32 µg/mL (≈ 91.3 µM) | MIC (K. pneumoniae strains; K. pneumoniae strain KP1061, with Compound I 5 μg/mL, read-out: Biapenem MIC with Compound I (5 μg/mL)): ≤ 0.06 µg/mL | MIC (K. pneumoniae strains; K. pneumoniae strain KP1074, read-out: Biapenem MIC Alone): 64 µg/mL (≈ 183 µM) | MIC (K. pneumoniae strains; K. pneumoniae strain KP1074, with Compound I 5 μg/mL, read-out: Biapenem MIC with Compound I (5 μg/mL)): 0.25 µg/mL (≈ 0.713 µM) | MIC (K. pneumoniae strains; four K. pneumoniae strains used in the infection models, read-out: Biapenem MICs): 0.25 to 64 µg/mL (≈ 0.713 to 183 µM)

O=C(O)C[C@@H]1CC[C@H](NC(=O)Cc2cccs2)B(O)O1 [Compound I]
CL or CL/F ([2]; 2 mg/kg IV): 8.5 ± 1.2 mL/min/kg | CL or CL/F ([2]; 6 mg/kg IV): 8.33 ± 1.3 mL/min/kg | CL or CL/F ([2]; 20 mg/kg IV): 8 ± 0.5 mL/min/kg | half-life ([2]; cynomolgus, 6 mg/kg IV): 33 ± 7.2 min | AUC ([2]; cynomolgus, 20 mg/kg IV): 41800 ± 2530 ng·h/mL | Cmax ([2]; cynomolgus, 20 mg/kg IV): 54900 ± 3320 ng/mL | half-life ([2]; cynomolgus, 20 mg/kg IV): 113 ± 104 min | AUC ([2]; 2 mg/kg IV): 3960 ± 510 ng·h/mL | Cmax ([2]; 2 mg/kg IV): 5350 ± 280 ng/mL | half-life ([2]; 2 mg/kg IV): 34.2 ± 1.8 min | AUC ([2]; 6 mg/kg IV): 12200 ± 1890 ng·h/mL | Cmax ([2]; 6 mg/kg IV): 17000 ± 1680 ng/mL
